Data reported in patent publication US11541050B2, “Pyrimidine derivatives for the treatment of viral infections” (JANSSEN SCIENCES IRELAND UC, priority 2011, dated 2023).

What was measured:
[1] = test system: HCV replicon in Huh-7 luc/neo cells; assay: Suppression of HCV replicon replication by conditioned media from compound-treated PBMC; format: cell-based, HCV type 1 b; conditions: Hepatitis C virus; conditioned media from compound-treated PBMC on Huh-7 luc/neo replicon cells (compounds 74 onward); read-out: PBMC HUH-7 EC50
How it was run: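 Readout is firefly luciferase from an HCV genotype 1b NS3-NS5B bicistronic replicon in Huh-7 cells, measured 24 h after adding conditioned medium. That medium came from overnight culture of compound-treated PBMC (2×10^5/well, human AB serum, at least two donors). Interferon α-2a was the reference.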

[2] = biological target: T1, human TLR8 (wild type sequence) (Homo sapiens, UniProt Q9NR97); assay: TLR8 cellular NFκB-luc reporter assay, wild type TLR8; format: cell-based; parameters: unit not given here; conditions: lowest effective concentration, wild type TLR8 (compounds 74 onward)
T1 construct: expressed in transfected cells; host or cells: HEK293
T1 sequence (Q9NR97 27-1041): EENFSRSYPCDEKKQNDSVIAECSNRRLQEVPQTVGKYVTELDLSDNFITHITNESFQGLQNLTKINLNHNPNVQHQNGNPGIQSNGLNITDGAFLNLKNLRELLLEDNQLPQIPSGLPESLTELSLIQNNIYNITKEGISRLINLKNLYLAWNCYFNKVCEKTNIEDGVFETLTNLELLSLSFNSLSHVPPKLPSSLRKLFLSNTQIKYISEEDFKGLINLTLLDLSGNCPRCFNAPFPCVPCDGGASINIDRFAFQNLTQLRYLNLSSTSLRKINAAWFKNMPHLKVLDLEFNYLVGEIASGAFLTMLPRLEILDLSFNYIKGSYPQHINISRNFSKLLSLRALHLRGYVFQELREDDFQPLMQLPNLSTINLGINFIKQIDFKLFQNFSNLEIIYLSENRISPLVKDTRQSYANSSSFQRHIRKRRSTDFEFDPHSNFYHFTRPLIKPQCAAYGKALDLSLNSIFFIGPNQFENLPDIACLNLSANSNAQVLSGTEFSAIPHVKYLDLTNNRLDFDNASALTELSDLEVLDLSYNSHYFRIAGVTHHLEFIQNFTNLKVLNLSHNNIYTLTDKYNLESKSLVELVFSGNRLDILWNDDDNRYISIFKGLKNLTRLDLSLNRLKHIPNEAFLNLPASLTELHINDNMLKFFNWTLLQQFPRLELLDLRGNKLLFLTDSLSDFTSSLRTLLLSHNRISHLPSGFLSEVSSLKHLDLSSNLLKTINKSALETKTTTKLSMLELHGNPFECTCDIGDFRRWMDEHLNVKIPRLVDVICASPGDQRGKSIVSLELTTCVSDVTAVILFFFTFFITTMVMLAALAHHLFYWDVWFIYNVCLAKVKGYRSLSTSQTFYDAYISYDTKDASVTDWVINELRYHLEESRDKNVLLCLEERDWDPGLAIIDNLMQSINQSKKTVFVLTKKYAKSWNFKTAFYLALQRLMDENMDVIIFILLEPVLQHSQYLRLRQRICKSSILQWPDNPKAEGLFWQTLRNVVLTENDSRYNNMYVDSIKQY
How it was run: (§1)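 Luciferase readout followed 6 h of compound exposure at 37 °C, 5% CO2, with quadruplicate dose-response curves. The cells were HEK293 carrying an NFκB-luc reporter and either wild-type TLR7/TLR8 or a mutant with a second leucine-rich repeat deletion, expressed by 48 h transient transfection. LEC is the lowest concentration giving at least twofold over the assay SD.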

[3] = biological target: T2, human TLR7 (wild type sequence) (Homo sapiens, UniProt Q9NYK1); assay: TLR7 cellular NFκB-luc reporter assay, wild type TLR7; format: cell-based; parameters: unit not given here; conditions: lowest effective concentration, wild type TLR7 (compounds 74 onward)
T2 construct: expressed in transfected cells; host or cells: HEK293
T2 sequence (Q9NYK1 27-1049): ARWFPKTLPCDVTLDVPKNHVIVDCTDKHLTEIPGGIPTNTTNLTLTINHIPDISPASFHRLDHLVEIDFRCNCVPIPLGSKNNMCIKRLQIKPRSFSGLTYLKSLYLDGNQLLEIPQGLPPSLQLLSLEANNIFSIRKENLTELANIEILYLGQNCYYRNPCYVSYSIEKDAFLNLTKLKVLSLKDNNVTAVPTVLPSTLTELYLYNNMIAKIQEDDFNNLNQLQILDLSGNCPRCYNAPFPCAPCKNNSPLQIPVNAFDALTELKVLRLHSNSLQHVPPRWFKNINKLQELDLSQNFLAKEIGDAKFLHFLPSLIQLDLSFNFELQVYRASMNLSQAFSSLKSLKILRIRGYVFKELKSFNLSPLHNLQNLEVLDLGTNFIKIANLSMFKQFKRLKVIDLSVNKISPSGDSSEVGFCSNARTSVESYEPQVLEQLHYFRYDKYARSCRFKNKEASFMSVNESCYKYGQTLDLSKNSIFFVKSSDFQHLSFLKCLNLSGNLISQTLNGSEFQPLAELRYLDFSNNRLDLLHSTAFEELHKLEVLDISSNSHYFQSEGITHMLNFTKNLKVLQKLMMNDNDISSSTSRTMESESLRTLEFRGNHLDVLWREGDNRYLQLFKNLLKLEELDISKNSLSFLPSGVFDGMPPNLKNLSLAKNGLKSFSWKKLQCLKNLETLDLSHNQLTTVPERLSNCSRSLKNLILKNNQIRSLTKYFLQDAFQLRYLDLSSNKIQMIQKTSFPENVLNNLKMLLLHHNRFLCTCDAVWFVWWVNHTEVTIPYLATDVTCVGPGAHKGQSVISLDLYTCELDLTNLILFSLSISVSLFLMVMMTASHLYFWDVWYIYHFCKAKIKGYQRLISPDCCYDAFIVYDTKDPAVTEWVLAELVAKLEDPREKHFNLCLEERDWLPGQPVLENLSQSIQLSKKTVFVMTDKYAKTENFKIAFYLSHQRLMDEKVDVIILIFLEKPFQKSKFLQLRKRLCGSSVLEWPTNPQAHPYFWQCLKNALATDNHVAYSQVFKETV
How it was run: as §1

Structure (SMILES)	EC50 [1]	TLR 8 wt LEC [2]	TLR 7 wt LEC [3]
CCCCNc1nc(N)ncc1OCCCc1cc(OC)c(OC)c(OC)c1 [Compound 160]	634 nM	2.710	0.756
CCCCNc1nc(N)ncc1OCCCc1cc(OC)c(OC)cc1OC [Compound 161]	629 nM	3.480	0.672
CCCCNc1nc(N)ncc1OCCCc1ccc(OC)cc1OC [Compound 163]	728 nM	2.500	0.573
CCCCNc1nc(N)ncc1OCCCc1ccc(OC)c(OC)c1OC [Compound 164]	769 nM	23.030	0.606
CCC[C@@H](CCO)Nc1nc(N)ncc1OCCCc1ccccc1 [Compound 165]	187 nM	1.800	0.683
CCCCNc1nc(N)ncc1OCc1cc2ccccc2cn1 [Compound 166]	46 nM	0.980	0.128
CCCCNc1nc(N)ncc1OCCC(c1ccccc1)c1ccccc1 [Compound 167]	764 nM	>25	1.200
CCCC(C)Nc1nc(N)nc(C)c1OCc1ccccc1 (stereo not drawn) [Compound 168]	11700 nM	14.900	>25
CCCCNc1nc(N)ncc1OCCCc1ccc(Cl)c(Cl)c1 [Compound 169]	3130 nM	>25	5.110
CCCCNc1nc(N)ncc1OCc1cc(C(=O)OCC)ccn1 [Compound 170]	2630 nM	1.750	0.319
CCCCNc1nc(N)ncc1OCc1cc(OC)ccn1 [Compound 171]	158 nM	1.060	0.396
CCCCNc1nc(N)ncc1OCc1cc(OC2Cc3ccccc3C2)c(OC)cn1 [Compound 172]	45 nM	2.000	0.187
CCCCNc1nc(N)ncc1OCc1cc(OC2CCCC2)c(OC)cn1 [Compound 173]	86 nM	2.550	0.222
CCCCNc1nc(N)ncc1OCc1cc(OC2CCOC2)c(OC)cn1 (stereo not drawn) [Compound 174]	52 nM	2.610	0.447
CCCCNc1nc(N)ncc1OCc1cc(OCC2CC2)c(OC)cn1 [Compound 175]	167 nM	2.480	0.367
CCCCNc1nc(N)ncc1OCc1cccc(C(N)=O)n1 [Compound 176]	173 nM	0.463	0.868
CCCCNc1nc(N)ncc1OCCCc1ccncc1 [Compound 177]	197 nM	0.819	0.795
CCCCNc1nc(N)ncc1OCc1ncccc1OC [Compound 179]	21 nM	0.142	0.078
CCCCNc1nc(N)ncc1OCc1cc(C(F)(F)F)n(C)n1 [Compound 181]	96 nM	1.210	0.146
CCCCNc1nc(N)ncc1OCc1nn(C)c2cc(OC)c(OC)cc12 [Compound 183]	23 nM	1.580	0.056
CCCCNc1nc(N)ncc1OCc1cccc2cccnc12 [Compound 184]	53 nM	1.650	0.157
CCCC(C)Nc1nc(N)ncc1OCc1ccc2ccccc2n1 (stereo not drawn) [Compound 185]	488 nM	2.340	0.743
CCCC[C@@H](CCO)Nc1nc(N)ncc1OCc1ccc2ccccc2n1 [Compound 186]	65 nM	0.680	0.122
CCC[C@@H](CCO)Nc1nc(N)ncc1OCc1ncc(C)c(OC)c1C [Compound 187]	22 nM	0.178	0.074
CCC[C@@H](CCO)Nc1nc(N)ncc1OCc1ccc2ccccc2n1 [Compound 188]	86 nM	0.530	0.237
CCCCCC(C)Nc1nc(N)ncc1OCc1ccc2ccccc2n1 (stereo not drawn) [Compound 189]	17600 nM	>25	11.990
CCC[C@H](CCO)Nc1nc(N)ncc1OCc1ccccc1 [Compound 190]	3230 nM	4.330	8.620
CCC[C@@H](CO)Nc1nc(N)ncc1OCc1ccc2ccccc2n1 [Compound 192]	44 nM	0.220	0.080
CCCC[C@@H](CO)Nc1nc(N)ncc1OCc1ncc(C)c(OC)c1C [Compound 194]	19 nM	0.164	0.031
CCC[C@@H](CO)Nc1nc(N)ncc1OCc1nccc2ccccc12 [Compound 195]	3 nM	0.056	0.003
